Reference: ChEMBL document CHEMBL3045411, “Efficacy and effects on yield of different fungicides for control of wet bubble disease of mushroom caused by the mycoparasite Mycogone perniciosa” (2010)
Values after ≈ are worked out from the molar mass of the structure shown.

Tested on: Mycogone perniciosa
Assay: Antimicrobial activity against Mycogone perniciosa isolates assessed as inhibition of mycelial growth after 12 days
Format: functional
Conditions: 288 h, read-out: ED50 (the source's name)

Compound	EC50
CC(C)NC(=O)N1CC(=O)N(c2cc(Cl)cc(Cl)c2)C1=O [IPRODIONE]	2.69 µg/mL (≈ 8.14 µM)
COC(=O)NC(=S)Nc1ccccc1NC(=S)NC(=O)OC [THIOPHANATE METHYL]	0.773 µg/mL (≈ 2.26 µM)
COC(=O)Nc1nc2ccccc2[nH]1 [CARBENDAZIM]	0.065 µg/mL (≈ 0.34 µM)
c1ccc2[nH]c(-c3cscn3)nc2c1 [THIABENDAZOLE]	0.225 µg/mL (≈ 1.12 µM)
